Measured values from US6350744B1, “Compounds having cytokine inhibitory activity” (Merck & Co., Inc., priority 1998, dated 2002).

SMILES	melting point
CN1CCC(c2cc(-c3ccncc3)c(-c3cccc(C(F)(F)F)c3)nn2)CC1 [Example 11, 3-(3-trifluoromethylphenyl)-4(pyridine-4-yl)-6-(N-methylpiperidin-4-yl)pyridazine]	188 to 189 °C
FC(F)(F)c1cccc(-c2cc(C3CCNCC3)nnc2-c2ccncc2)c1 [Example 28, 3-(pyridine-4-yl)-4-(3-trifluoromethylphenyl)-6-(piperidin-4-yl)pyridazine]	148 to 150 °C
